Experiment [1] addresses T1, HCV polymerase (NS5B) type 1b (Hepatitis C virus genotype 1b, UniProt P26663).
T1 construct: a region encoding NS5B (J Virol 1991 March, 65(3), 1105-13, 544 amino acids after deletion of 47 amino acids on the C-terminal); 6xHis (C); made in house; host or cells: Escherichia coli
The experiment in a line: Assay of enzyme (HCV polymerase) inhibitory activity, type 1b enzyme. The format is biochemical, HCV BK strain (type 1b). The note with it: HCV polymerase inhibitory activity (IC50), 1b, type 1b enzyme 0.5 μg/ml, 25° C., 60 min. Put shortly: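 His-tagged, C-terminally truncated NS5B (BK strain, 1b; 0.5 μg/ml) incubated with compound 60 min at 25 °C on 3′UTR-derived substrate RNA (5 μg/ml), 50 μM ATP/GTP/CTP, 2 μM UTP plus [3H]UTP, pH 7.5. Acid-precipitated RNA counted; IC50 from radioactivity with and without compound.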

Experiment [2] has as its target T2, HCV polymerase (NS5B) type 1a (Hepatitis C virus genotype 1a, UniProt P26664).
T2 construct: made in house; host or cells: Escherichia coli (by the 'similar method' of the 1b enzyme)
In words: Assay of enzyme (HCV polymerase) inhibitory activity, type 1a enzyme. The format is biochemical, HCV type 1a (cloned from the blood of patients). The note with it: HCV polymerase inhibitory activity (IC50), 1a, type 1a enzyme 1.5 μg/ml, 25° C., 60 min. The method in brief: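 His-tagged NS5B, C-terminal 47 residues deleted, type 1a at 1.5 μg/ml, with 5 μg/ml HCV 3′UTR substrate RNA, 50 μM ATP/GTP/CTP, 2 μM UTP plus [3H]UTP, pH 7.5 Tris, 5 mM MgCl2; 60 min at 25° C. TCA-precipitated RNA counted by scintillation; IC50 from radioactivity with vs. without compound.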

Structures can show the parent of a compound that is named as a salt.

Turning to `CCCOc1ccc(S(=O)(=O)N2CCN(C(C)=O)C[C@@H]2C(=O)NCc2ccc(C(C)C)cc2)cc1` [Example 193, (R)-4-acetyl-1-(4-propoxy-benzenesulfonyl)-piperazine-2-carboxylic acid 4-isopropyl-benzylamide], the IC50 in experiment [1] and in experiment [2] was 100 to 1000 nM in each case.

`CC(=O)N1CCN(S(=O)(=O)c2ccc(CC(C)C)cc2)[C@@H](C(=O)NCc2ccc(C(C)C)cc2)C1` [Example 194, (R)-4-acetyl-1-(4-isobutyl-benzenesulfonyl)-piperazine-2-carboxylic acid 4-isopropyl-benzylamide]: the IC50 in experiment [1] and in experiment [2] was below 100 nM each time.

In the case of `CC(C)c1ccc(CNC(=O)[C@H]2CN(C(=O)Cc3c[nH]cn3)CCN2S(=O)(=O)c2ccc(C(F)(F)F)cc2)cc1` [Example 195, (R)-4-(2-1H-imidazol-4-yl-acetyl)-1-(4-trifluoromethyl-benzenesulfonyl)-piperazine-2-carboxylic acid 4-isopropyl-benzylamide], the IC50 in experiment [1] and in experiment [2] was 100 to 1000 nM in each case.

As for `CC(=O)N1CCN(S(=O)(=O)C2CCCCC2)C(C(=O)NCc2ccc(C(F)(F)F)cc2)C1` (centres unmarked) [Example 196, 4-acetyl-1-cyclohexanesulfonyl-piperazine-2-carboxylic acid 4-trifluoromethyl-benzylamide], the 50% inhibitory concentration (IC50) in experiment [1] and in experiment [2] was above 1000 nM in each case.

Regarding `COc1ccc(CNC(=O)C2CN(C(C)=O)CCN2S(=O)(=O)c2ccc(C(C)C)cc2)c(OC)c1` (centres unmarked) [Example 197, 4-acetyl-1-(4-isopropyl-benzenesulfonyl)-piperazine-2-carboxylic acid 2,4-dimethoxy-benzylamide], the IC50 in experiment [1] and in experiment [2] was above 1000 nM in each case.

`COc1ccc(CNC(=O)C2CN(C(C)=O)CCN2S(=O)(=O)c2ccc(C(C)C)cc2)cc1OC` (centres unmarked) [Example 198, 4-acetyl-1-(4-isopropyl-benzenesulfonyl)-piperazine-2-carboxylic acid 3,4-dimethoxy-benzylamide]: the concentration for half-maximal inhibition (IC50) in experiment [1] and in experiment [2] was above 1000 nM each time.

For the compound `CC(C)c1ccc(CNC(=O)[C@H]2CN(C(=O)NCCCC(=O)O)CCN2S(=O)(=O)c2ccc(C(F)(F)F)cc2)cc1` [Example 199, 4-{[(R)-3-(4-isopropyl-benzylcarbamoyl)-4-(4-trifluoromethyl-benzenesulfonyl)-piperazine-1-carbonyl]-amino}-butyric acid], the IC50 in experiment [1] was 100 to 1000 nM; in experiment [2], above 1000 nM.

On to `CC(C)c1ccc(CNC(=O)[C@H]2CN(C(=O)Nc3ccc(N(C)C)cc3)CCN2S(=O)(=O)c2ccc(C(F)(F)F)cc2)cc1` [Example 200, (R)-4-(4-trifluoromethyl-benzenesulfonyl)-piperazine-1,3-dicarboxylic acid 1-[(4-dimethylamino-phenyl)-amide] 3-(4-isopropyl-benzylamide)], for which the IC50 in experiment [1] is 100 to 1000 nM; in experiment [2], above 1000 nM.

For the compound `CC(C)c1ccc(CNC(=O)[C@H]2CN(C(=O)c3ccncc3)CCN2S(=O)(=O)c2ccc(C(F)(F)F)cc2)cc1` [Example 201, (R)-4-(pyridine-4-carbonyl)-1-(4-trifluoromethyl-benzenesulfonyl)-piperazine-2-carboxylic acid 4-isopropyl-benzylamide], the concentration for half-maximal inhibition (IC50) in experiment [1] and in experiment [2] was above 1000 nM in each case.

As to `CCCN(C)c1ccc(CNC(=O)C2CN(C(C)=O)CCN2S(=O)(=O)c2ccc(C(C)C)cc2)cc1` (centres unmarked) [Example 202, 4-acetyl-1-(4-isopropyl-benzenesulfonyl)-piperazine-2-carboxylic acid 4-(methyl-propyl-amino)-benzylamide], the IC50 in experiment [1] was 100 to 1000 nM; in experiment [2], above 1000 nM.

With `CC(=O)N1CCN(S(=O)(=O)c2ccc3c(c2)CCCC3)[C@@H](C(=O)NCc2ccc(C(C)C)cc2)C1` [Example 203, (R)-4-acetyl-1-(5,6,7,8-tetrahydro-naphthalene-2-sulfonyl)-piperazine-2-carboxylic acid 4-isopropyl-benzylamide], the IC50 is below 100 nM in experiment [1] and 100 to 1000 nM in experiment [2].

As for `CC(=O)N1CCN(S(=O)(=O)c2ccc3c(c2)CCC3)[C@@H](C(=O)NCc2ccc(C(C)C)cc2)C1` [Example 204, (R)-4-acetyl-1-(indane-5-sulfonyl)-piperazine-2-carboxylic acid 4-isopropyl-benzylamide], the concentration for half-maximal inhibition (IC50) in experiment [1] and in experiment [2] was 100 to 1000 nM throughout.

On to `CCCc1ccc(S(=O)(=O)N2CCN(C(C)=O)C[C@@H]2C(=O)NCc2ccc(C(C)C)cc2)cc1` [Example 205, (R)-4-acetyl-1-(4-propyl-benzenesulfonyl)-piperazine-2-carboxylic acid 4-isopropyl-benzylamide], for which the half-maximal inhibitory concentration (IC50) in experiment [1] and in experiment [2] was below 100 nM each time.

`CC(=O)N1CCN(S(=O)(=O)c2ccc(-c3ccccc3)cc2)[C@@H](C(=O)NCc2ccc(C(C)C)cc2)C1` [Example 206, (R)-4-acetyl-1-(biphenyl-4-sulfonyl)-piperazine-2-carboxylic acid 4-isopropyl-benzylamide]: the half-inhibitory concentration (IC50) in experiment [1] and in experiment [2] was 100 to 1000 nM throughout.

For `CC(=O)N1CCN(S(=O)(=O)c2ccc(OC(F)(F)F)cc2)[C@@H](C(=O)NCc2ccc(C(C)C)cc2)C1` [Example 207, (R)-4-acetyl-1-(4-trifluoromethoxy-benzenesulfonyl)-piperazine-2-carboxylic acid 4-isopropyl-benzylamide], the half-maximal inhibitory concentration (IC50) in experiment [1] and in experiment [2] was below 100 nM in each case.

For the compound `CC(=O)N1CCN(S(=O)(=O)c2ccc(C(C)(C)C)cc2)[C@@H](C(=O)NCc2ccc(C(C)C)cc2)C1` [Example 208, (R)-4-acetyl-1-(4-tert-butyl-benzenesulfonyl)-piperazine-2-carboxylic acid 4-isopropyl-benzylamide], the half-maximal inhibitory concentration (IC50) in experiment [1] and in experiment [2] was below 100 nM throughout.

`CN(C)c1ccc(CNC(=O)[C@H]2CNCCN2S(=O)(=O)c2ccc(C(F)(F)F)cc2)cc1` [Example 209, (R)-1-(4-trifluoromethyl-benzenesulfonyl)-piperazine-2-carboxylic acid 4-dimethylamino-benzylamide dihydrochloride]: the half-maximal inhibitory concentration (IC50) in experiment [1] and in experiment [2] was above 1000 nM in each case.

In the case of `CC(C)c1ccc(CNC(=O)[C@H]2CN(C(=O)Nc3cccnc3)CCN2S(=O)(=O)c2ccc(C(F)(F)F)cc2)cc1` [Example 211, (R)-4-(4-trifluoromethyl-benzenesulfonyl)-piperazine-1,3-dicarboxylic acid 3-(4-isopropyl-benzylamide) 1-pyridin-3-ylamide], the IC50 in experiment [1] and in experiment [2] was 100 to 1000 nM each time.

Regarding `COC(=O)CCCCC(=O)N1CCN(S(=O)(=O)c2ccc(C(F)(F)F)cc2)[C@@H](C(=O)NCc2ccc(C(C)C)cc2)C1` [Example 212, 6-[(R)-3-(4-isopropyl-benzylcarbamoyl)-4-(4-trifluoromethyl-benzenesulfonyl)-piperazin-1-yl]-6-oxo-hexanoic acid methyl ester], the IC50 in experiment [1] was below 100 nM; in experiment [2], 100 to 1000 nM.

For `CC(C)c1ccc(CNC(=O)[C@H]2CN(C(=O)CCCCC(=O)O)CCN2S(=O)(=O)c2ccc(C(F)(F)F)cc2)cc1` [Example 213, 6-[(R)-3-(4-isopropyl-benzylcarbamoyl)-4-(4-trifluoromethyl-benzenesulfonyl)-piperazin-1-yl]-6-oxo-hexanoic acid], the 50% inhibitory concentration (IC50) in experiment [1] and in experiment [2] was 100 to 1000 nM throughout.

Turning to `COc1ccc(S(=O)(=O)N2CCN(C(C)=O)C[C@@H]2C(=O)NCc2ccc(C(C)C)cc2)cc1` [Example 214, (R)-4-acetyl-1-(4-methoxy-benzenesulfonyl)-piperazine-2-carboxylic acid 4-isopropyl-benzylamide], the IC50 in experiment [1] and in experiment [2] was 100 to 1000 nM throughout.

In the case of `COc1ccc(S(=O)(=O)N2CCN(C(C)=O)C[C@@H]2C(=O)NCc2ccc(C(C)C)cc2)cc1C(C)C` [Example 215, (R)-4-acetyl-1-(3-isopropyl-4-methoxy-benzenesulfonyl)-piperazine-2-carboxylic acid 4-isopropyl-benzylamide], the IC50 in experiment [1] is below 100 nM; in experiment [2], 100 to 1000 nM.

For `COc1ccc(S(=O)(=O)N2CCN(C(C)=O)C[C@@H]2C(=O)NCc2ccc(C(C)C)cc2)cc1Cl` [Example 216, (R)-4-acetyl-1-(3-chloro-4-methoxy-benzenesulfonyl)-piperazine-2-carboxylic acid 4-isopropyl-benzylamide], the IC50 in experiment [1] and in experiment [2] was 100 to 1000 nM each time.

As to `COC(=O)Cc1cc(S(=O)(=O)N2CCN(C(C)=O)C[C@@H]2C(=O)NCc2ccc(C(C)C)cc2)ccc1OC` [Example 217, {5-[(R)-4-acetyl-2-(4-isopropyl-benzylcarbamoyl)-piperazine-1-sulfonyl]-2-methoxy-phenyl}-acetic acid methyl ester], the IC50 in experiment [1] and in experiment [2] was above 1000 nM each time.

As for `COC(=O)CCc1cc(S(=O)(=O)N2CCN(C(C)=O)C[C@@H]2C(=O)NCc2ccc(C(C)C)cc2)ccc1OC` [Example 218, 3-{5-[(R)-4-acetyl-2-(4-isopropyl-benzylcarbamoyl)-piperazine-1-sulfonyl]-2-methoxy-phenyl}-propionic acid methyl ester], the half-maximal inhibitory concentration (IC50) in experiment [1] and in experiment [2] was 100 to 1000 nM each time.

Values taken from patent US8017612B2, “Piperazine compound and use thereof as a HCV polymerase inhibitor” (priority 2006, dated 2011).
